≈ marks a conversion by molar mass, not a printed value. Calls of active or inactive are those of the source. No cut-off for these calls is given here.
Experiments:
A549 = experiment: Cytotoxicity against human A549 cells; format: functional, cell-based
HT-29 = experiment: Cytotoxicity against human HT29 cells; format: functional, cell-based
[1] = Cytotoxicity against human MEL28 cells; format: functional, cell-based; details: SK-MEL-28
P388 = experiment: Cytotoxicity against mouse P388 cells; format: functional, cell-based
Priestia megaterium [2] = experiment: Antibacterial activity against Bacillus megaterium at 50 ug/disk; format: functional
Escherichia coli = experiment: Antibacterial activity against Escherichia coli at 50 ug/disk; format: functional
Microbotryum violaceum [3] = experiment: Antifungal activity against Microbotryum violaceae at 50 ug/disk; format: functional
[4] = system: Aspergillus pseudoglaucus; experiment: Antifungal activity against Eurotium repens at 50 ug/disk; format: functional
Fusarium oxysporum [5] = experiment: Antifungal activity against Fusarium oxysporum at 50 ug/disk; format: functional
Mycotypha microspora [6] = experiment: Antifungal activity against Mycotypha microspora at 50 ug/disk; format: functional
[Chlorella] fusca [7] = Antialgal activity against Chlorella fusca at 50 ug/disk; format: functional; details: Scenedesmus fuscus
Artemia salina = experiment: (§1) Toxicity in Artemia salina at 0.5 mg/mL after 48 hrs; format: organism-based; details: in vivo, 48 h
Microbotryum violaceum [8] = experiment: Antifungal activity against Microbotryum violaceae assessed as few colonies of test organism growing within inhibition zone at 50 ug/disk; format: functional; details: read-out: IZ
[9] = system: Aspergillus pseudoglaucus; experiment: Antifungal activity against Eurotium repens assessed as few colonies of test organism growing within inhibition zone at 50 ug/disk; format: functional; details: read-out: IZ
Lu1 = experiment: Cytotoxicity against human Lu1 cells; format: functional, cell-based
KB = experiment: Cytotoxicity against human KB cells; format: functional, cell-based
ZR-75-1 = experiment: Cytotoxicity against human ZR-75-1 cells; format: functional, cell-based
Caenorhabditis elegans = experiment: Nematicidal activity against Caenorhabditis elegans; format: functional, organism-based
[10] = target: Human immunodeficiency virus type 1 reverse transcriptase (Human immunodeficiency virus 1) (UniProt Q72547); experiment: Inhibition of HIV1 reverse transcriptase
[11] = target: Tyrosine-protein kinase Lck (Homo sapiens) (UniProt P06239); experiment: Inhibition of p56lck
HeLa = experiment: Cytotoxicity against human HeLa cells; format: functional, cell-based
Mycotypha microspora [12] = experiment: Antifungal activity against Mycotypha microspora assessed as no colonies of test organism growing within inhibition zone at 50 ug/disk; format: functional; details: read-out: IZ
[Chlorella] fusca [13] = Antialgal activity against Chlorella fusca assessed as few colonies of test organism growing within inhibition zone at 50 ug/disk; format: functional; details: Scenedesmus fuscus; read-out: IZ
[14] = as §1; format: organism-based; details: in vivo, read-out: Activity
[15] = Cytotoxicity against human HMO2 cells; format: functional, cell-based
HepG2 = experiment: Cytotoxicity against human HepG2 cells; format: functional, cell-based
MCF7 = experiment: Cytotoxicity against human MCF7 cells; format: functional, cell-based
[16] = Antibacterial activity against Escherichia coli assessed as few colonies of test organism growing within inhibition zone at 50 ug/disk; details: read-out: IZ
Priestia megaterium [17] = experiment: Antibacterial activity against Bacillus megaterium assessed as no colonies of test organism growing within inhibition zone at 50 ug/disk; format: functional; details: read-out: IZ
Microbotryum violaceum [18] = experiment: Antifungal activity against Microbotryum violaceae assessed as no colonies of test organism growing within inhibition zone at 50 ug/disk; format: functional; details: read-out: IZ
Fusarium oxysporum [19] = experiment: Antifungal activity against Fusarium oxysporum assessed as few colonies of test organism growing within inhibition zone at 50 ug/disk; format: functional; details: read-out: IZ
Mycotypha microspora [20] = experiment: Antifungal activity against Mycotypha microspora assessed as few colonies of test organism growing within inhibition zone at 50 ug/disk; format: functional; details: read-out: IZ
[21] = Toxicity in Artemia salina at 0.5 mg/mL after 24 hrs; format: organism-based; details: in vivo, read-out: Activity
[22] = Cytotoxicity against rat L6 cells; format: cell-based; details: read-out: MIC
Trypanosoma cruzi = experiment: Antitrypanosomal activity against Trypanosoma cruzi; format: functional, organism-based

Tyrosine-protein kinase Lck (Homo sapiens), sequence (P06239 2-509 limits assumed): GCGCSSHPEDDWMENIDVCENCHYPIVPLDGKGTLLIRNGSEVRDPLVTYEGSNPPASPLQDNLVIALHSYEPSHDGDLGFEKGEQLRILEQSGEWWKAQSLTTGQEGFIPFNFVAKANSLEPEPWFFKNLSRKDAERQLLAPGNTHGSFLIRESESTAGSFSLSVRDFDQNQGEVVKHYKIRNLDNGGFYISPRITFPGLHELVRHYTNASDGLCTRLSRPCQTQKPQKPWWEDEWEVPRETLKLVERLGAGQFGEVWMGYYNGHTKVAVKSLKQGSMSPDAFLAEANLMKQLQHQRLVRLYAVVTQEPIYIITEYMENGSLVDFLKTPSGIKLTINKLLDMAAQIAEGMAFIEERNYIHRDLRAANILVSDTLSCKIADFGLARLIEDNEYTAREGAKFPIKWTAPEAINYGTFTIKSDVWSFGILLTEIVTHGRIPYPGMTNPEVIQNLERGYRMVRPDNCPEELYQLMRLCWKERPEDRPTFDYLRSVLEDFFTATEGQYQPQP

Question: For `C=C1C[C@@H](O)[C@@H](Br)C(C)(C)[C@]12CC[C@](C)(Cl)[C@@H](Br)C2` [CARTILAGINEOL], which IC50 (A549) is on record?
Answer: 1 µg/mL (≈ 2.41 µM)

Question: What about the IC50 (HT-29) of the same compound?
Answer: 0.25 µg/mL (≈ 0.603 µM)

Question: And the IC50 [1]?
Answer: 1 µg/mL (≈ 2.41 µM)

Question: And the IC50 (P388)?
Answer: 5 µg/mL (≈ 12.1 µM)

Question: And the “inhibition zone (IZ)” value (Priestia megaterium [2])?
Answer: inactive

Question: What about the “inhibition zone (IZ)” value (Escherichia coli) of the same compound?
Answer: inactive

Question: What about the “inhibition zone (IZ)” value (Microbotryum violaceum [3]) of the same compound?
Answer: inactive

Question: And the “inhibition zone (IZ)” value [4]?
Answer: inactive

Question: And the “inhibition zone (IZ)” value (Fusarium oxysporum [5])?
Answer: inactive

Question: What about the “inhibition zone (IZ)” value (Mycotypha microspora [6]) of the same compound?
Answer: inactive

Question: And the “inhibition zone (IZ)” value ([Chlorella] fusca [7])?
Answer: inactive

Question: And the “inhibition zone (Toxicity)” value (Artemia salina)?
Answer: Not Active

Question: Which Activity (Priestia megaterium [2]) does the source give for `Cc1cc([C@H]2CC[C@](C)(Cl)[C@@H](Br)C2)co1` [FUROCAESPITANE] here?
Answer: inactive

Question: What about the Activity (Escherichia coli) of the same compound?
Answer: inactive

Question: And the Activity (Microbotryum violaceum [3])?
Answer: inactive

Question: And the Activity [4]?
Answer: inactive

Question: What about the Activity (Fusarium oxysporum [5]) of the same compound?
Answer: inactive

Question: And the Activity (Mycotypha microspora [6])?
Answer: inactive

Question: What about the Activity ([Chlorella] fusca [7]) of the same compound?
Answer: inactive

Question: What about the Activity (Artemia salina) of the same compound?
Answer: Not Active

Question: Which results are given for `CC(=O)O[C@@H](C=C(C)C)C/C(C)=C1\CC[C@](C)(Br)[C@@H](Cl)C1`?
Answer: Activity (Priestia megaterium [2]): inactive; Activity (Escherichia coli): inactive; Activity ([Chlorella] fusca [7]): inactive; zone of inhibition at 50 µg/disc (Microbotryum violaceum [8]): 1 mm; zone of inhibition at 50 µg/disc [9]: 2 mm; Activity (Artemia salina): Not Active; IC50 (Lu1): > 25 µg/mL; IC50 (KB): > 25 µg/mL; IC50 (ZR-75-1): > 25 µg/mL

Question: For `C=C1C[C@@H](O)[C@@H](Br)C(C)(C)[C@]12CC[C@@](C)(Br)[C@H](Cl)C2` [OBTUSOL], which Activity (Caenorhabditis elegans) is on record?
Answer: Active

Question: What about the Activity [10] of the same compound?
Answer: inactive

Question: What about the Activity [11] of the same compound?
Answer: inactive

Question: What about the IC50 (HeLa) of the same compound?
Answer: 50 µg/mL (≈ 121 µM)

Question: What about the Activity (Priestia megaterium [2]) of the same compound?
Answer: inactive

Question: What about the Activity (Escherichia coli) of the same compound?
Answer: inactive

Question: What about the zone of inhibition at 50 µg/disc (Mycotypha microspora [12]) of the same compound?
Answer: 6 mm

Question: And the zone of inhibition at 50 µg/disc ([Chlorella] fusca [13])?
Answer: 3 mm

Question: What about the mortality at 48 h, 0.5 mg/mL [14] of the same compound?
Answer: 80%

Question: And the IC50 [15]?
Answer: 7 µg/mL (≈ 16.9 µM)

Question: What about the IC50 (HepG2) of the same compound?
Answer: < 1 µg/mL

Question: And the IC50 (MCF7)?
Answer: 1.5 µg/mL (≈ 3.62 µM)

Question: What about the IC50 (Lu1) of the same compound?
Answer: > 25 µg/mL

Question: What about the IC50 (KB) of the same compound?
Answer: > 25 µg/mL

Question: And the IC50 (ZR-75-1)?
Answer: > 25 µg/mL

Question: For `C[C@@]1(Cl)C[C@@](C)(Br)[C@H](/C=C/Cl)C[C@@H]1Br`, which IC50 (HeLa) is on record?
Answer: 1 µg/mL (≈ 2.74 µM)

Question: And the Activity ([Chlorella] fusca [7])?
Answer: inactive

Question: What about the zone of inhibition at 50 µg/disc (Microbotryum violaceum [8]) of the same compound?
Answer: 1 mm

Question: And the zone of inhibition at 50 µg/disc [9]?
Answer: 1 mm

Question: What about the mortality at 48 h, 0.5 mg/mL [14] of the same compound?
Answer: 90%

Question: What about the IC50 (Lu1) of the same compound?
Answer: > 25 µg/mL

Question: What about the IC50 (KB) of the same compound?
Answer: > 25 µg/mL

Question: What about the IC50 (ZR-75-1) of the same compound?
Answer: > 25 µg/mL

Question: And the zone of inhibition at 50 µg/disc [16]?
Answer: 1 mm

Question: For `CC1(C)O[C@](C)([C@H]2CC[C@](C)(Cl)[C@@H](Br)C2)[C@H](O)C[C@H]1Br` [CAESPITOL], which Activity (Caenorhabditis elegans) is on record?
Answer: Active

Question: And the Activity [10]?
Answer: inactive

Question: And the Activity [11]?
Answer: inactive

Question: What about the IC50 (HeLa) of the same compound?
Answer: 100 µg/mL (≈ 231 µM)

Question: And the Activity (Priestia megaterium [2])?
Answer: inactive

Question: What about the Activity (Escherichia coli) of the same compound?
Answer: inactive

Question: And the Activity (Microbotryum violaceum [3])?
Answer: inactive

Question: What about the Activity [4] of the same compound?
Answer: inactive

Question: And the Activity (Fusarium oxysporum [5])?
Answer: inactive

Question: What about the zone of inhibition at 50 µg/disc ([Chlorella] fusca [13]) of the same compound?
Answer: 3 mm

Question: And the mortality at 48 h, 0.5 mg/mL [14]?
Answer: 70%

Question: And the IC50 (Lu1)?
Answer: > 25 µg/mL

Question: What about the IC50 (KB) of the same compound?
Answer: > 25 µg/mL

Question: And the IC50 (ZR-75-1)?
Answer: > 25 µg/mL

Question: Which Activity (Priestia megaterium [2]) does the source give for `CC(=O)O[C@@H]1C[C@@H](Br)C(C)(C)O[C@]1(C)[C@H]1CC[C@](C)(Cl)[C@@H](Br)C1` here?
Answer: inactive

Question: And the Activity (Escherichia coli)?
Answer: inactive

Question: What about the Activity (Microbotryum violaceum [3]) of the same compound?
Answer: inactive

Question: What about the Activity [4] of the same compound?
Answer: inactive

Question: What about the Activity (Fusarium oxysporum [5]) of the same compound?
Answer: inactive

Question: And the Activity (Mycotypha microspora [6])?
Answer: inactive

Question: And the Activity ([Chlorella] fusca [7])?
Answer: inactive

Question: What about the Activity (Artemia salina) of the same compound?
Answer: Not Active

Question: For `C=C1C[C@H](O)[C@H](Br)C(C)(C)[C@@]12CCC(C)=C(Cl)C2` [ELATOL], which Activity (Caenorhabditis elegans) is on record?
Answer: Active

Question: And the Activity [10]?
Answer: inactive

Question: And the Activity [11]?
Answer: inactive

Question: What about the IC50 (A549) of the same compound?
Answer: 0.1 µg/mL (≈ 0.3 µM)

Question: And the IC50 (HT-29)?
Answer: 0.1 µg/mL (≈ 0.3 µM)

Question: And the IC50 [1]?
Answer: 0.1 µg/mL (≈ 0.3 µM)

Question: What about the IC50 (P388) of the same compound?
Answer: 1 µg/mL (≈ 3 µM)

Question: And the zone of inhibition at 50 µg/disc (Priestia megaterium [17])?
Answer: 2 mm

Question: What about the zone of inhibition at 50 µg/disc (Microbotryum violaceum [18]) of the same compound?
Answer: 3 mm

Question: What about the Activity ([Chlorella] fusca [7]) of the same compound?
Answer: inactive

Question: What about the zone of inhibition at 50 µg/disc [9] of the same compound?
Answer: 25 mm

Question: What about the zone of inhibition at 50 µg/disc (Fusarium oxysporum [19]) of the same compound?
Answer: 7 mm

Question: What about the zone of inhibition at 50 µg/disc (Mycotypha microspora [20]) of the same compound?
Answer: 25 mm

Question: And the mortality at 24 h, 0.5 mg/mL [21]?
Answer: 100%

Question: And the IC50 [15]?
Answer: < 1 µg/mL

Question: And the IC50 (HepG2)?
Answer: < 1 µg/mL

Question: And the IC50 (MCF7)?
Answer: < 1 µg/mL

Question: What about the MCC [22] of the same compound?
Answer: 3.3 µg/mL

Question: And the IC50 (Trypanosoma cruzi)?
Answer: 0.92 µg/mL (≈ 2.76 µM)

Question: What about the IC50 (Lu1) of the same compound?
Answer: > 25 µg/mL

Question: What about the IC50 (KB) of the same compound?
Answer: > 25 µg/mL

Question: What about the IC50 (ZR-75-1) of the same compound?
Answer: > 25 µg/mL

Question: Which Activity (Priestia megaterium [2]) does the source give for `C=C[C@]1(C)CC[C@@H](Br)[C@](C)(CC[C@@H]2[C@@H](C)[C@]3(C)CC[C@@]2(C)O3)O1` [DACTYLOPYRANOID] here?
Answer: inactive

Question: And the Activity (Escherichia coli)?
Answer: inactive

Question: And the Activity (Microbotryum violaceum [3])?
Answer: inactive

Question: And the Activity [4]?
Answer: inactive

Question: What about the Activity (Fusarium oxysporum [5]) of the same compound?
Answer: inactive

Question: What about the Activity (Mycotypha microspora [6]) of the same compound?
Answer: inactive

Question: What about the Activity ([Chlorella] fusca [7]) of the same compound?
Answer: inactive

Question: What about the Activity (Artemia salina) of the same compound?
Answer: Not Active

Question: For `CCOC(=O)c1ccccc1C(=O)OCC` [DIETHYL PHTHALATE], which zone of inhibition at 50 µg/disc ([Chlorella] fusca [7]; read-out: IZ) is on record?
Answer: 13 mm
